Each structure is given as a SMILES string. ≈ marks a conversion by molar mass, not a printed value.

We go through 14 molecules from DBAASP.

Test systems include Staphylococcus aureus; Escherichia coli; Bacillus subtilis; Candida albicans; Acinetobacter baumannii.
What all share (assay): ≥ marks a high value that may be exact or a test limit, other limits are often not marked, values filed in µg/mL are converted to µM
Test [1] relates to Pseudomonas aeruginosa ATCC 9027.
For test [2], the system named is Candida albicans ATCC 10231.
For test [3], the system named is Escherichia coli ATCC 25922.
The subject of test [4] is Staphylococcus aureus ATCC 6538.
Test [5] has as its system Staphylococcus aureus ATCC 25923.
Test [6] relates to Candida albicans ATCC 90028.
Test [7] concerns Klebsiella pneumoniae ATCC 700603.
The subject of test [8] is Candida albicans ATCC 2002.
Test [9] relates to Bacillus subtilis ATCC 6633.
Test [10] has as its system Staphylococcus epidermidis.
The subject of test [11] is Pseudomonas aeruginosa ATCC 27853.
In test [12] the test system is Escherichia coli DH5alpha.

Regarding `CC[C@H](C)[C@@H]1NC(=O)[C@H](CO)NC(=O)[C@H](CCCCN)NC(=O)[C@H]([C@@H](C)O)NC(=O)[C@H](Cc2c[nH]c3ccccc23)NC(=O)[C@@H](NC(=O)CNC(=O)[C@H](CCCCN)NC(=O)[C@H](CC(C)C)NC(=O)[C@H](C)NC(=O)[C@H](C)N)CSSC[C@@H](C(=O)N[C@@H](Cc2ccccc2)C(=O)NCC(=O)N[C@@H](CCCCN)C(=O)N[C@@H](CCCN=C(N)N)C(=O)O)NC(=O)[C@@H]2CCCN2C(=O)[C@H](CCCCN)NC(=O)[C@@H]2CCCN2C(=O)[C@@H]2CCCN2C1=O` [AALKGCWTKSIPPKPCFGKR], the MIC came to 2.66 µM (≈ 5.82 µg/mL) with Staphylococcus aureus, 1.47 µM (≈ 3.21 µg/mL) in the test on Escherichia coli, 0.845 µM (≈ 1.85 µg/mL) with Bacillus subtilis and 1.1 µM (≈ 2.4 µg/mL) in the test with Candida albicans.

Consider `N[C@@H](CC(=O)O)C(=O)N[C@@H](Cc1ccc(O)cc1)C(=O)N[C@@H](CC(=O)O)C(=O)N[C@@H](CC(=O)O)C(=O)O` [DYDD], for which the MIC came to 17200 µM (≈ 9040 µg/mL) in test [1], 8580 µM (≈ 4520 µg/mL) in [2] and 34300 µM (≈ 18100 µg/mL) in [3].

`CC(C)C[C@H](NC(=O)[C@H](C)NC(=O)[C@H](C)NC(=O)[C@H](CCCCN)NC(=O)[C@H](C)NC(=O)[C@H](CC(C)C)NC(=O)[C@H](CCCCN)NC(=O)[C@H](CCCCN)NC(=O)[C@H](C)NC(=O)[C@H](CC(C)C)NC(=O)[C@H](CCCCN)NC(=O)[C@H](CCCCN)NC(=O)[C@H](C)NC(=O)[C@@H](N)Cc1ccccc1)C(N)=O` [FAKKLAKKLAKAAL]: the values for the MIC in [1] and in test [4] were 66.6 µM (≈ 99.9 µg/mL) and 6.66 µM (≈ 9.99 µg/mL), respectively.

In the case of `CC(C)C[C@H](NC(=O)[C@H](CCCCN)NC(=O)[C@H](CCCCN)NC(=O)[C@H](C)NC(=O)[C@H](CC(C)C)NC(=O)[C@H](CCCCN)NC(=O)[C@H](CCCCN)NC(=O)[C@H](CC(C)C)NC(=O)[C@H](CCCCN)NC(=O)[C@H](CCCCN)NC(=O)[C@H](C)NC(=O)[C@@H](N)Cc1ccccc1)C(N)=O` [FAKKLKKLAKKL], the values for the MIC in [1] and in test [4] were 141 µM (≈ 200 µg/mL) and 70.6 µM (≈ 99.9 µg/mL), respectively.

For `CC[C@H](C)[C@H](NC(=O)[C@@H]1CCCN1C(=O)[C@H](CC(C)C)NC(=O)[C@@H](N)Cc1ccccc1)C(=O)N[C@@H](CC(C)C)C(=O)NCC(=O)N[C@@H](CCCCN)C(=O)N[C@@H](CC(C)C)C(=O)N[C@@H](CC(C)C)C(=O)N[C@@H](CO)C(=O)NCC(=O)N[C@@H](CC(C)C)C(=O)N[C@@H](CC(C)C)C(N)=O` [FLPILGKLLSGLL], the MIC was 10 µM (≈ 13.8 µg/mL) in test [5], at least 80 µM in [6] and over 160 µM in [3].

For the molecule `CC[C@H](C)[C@H](NC(=O)CNC(=O)[C@H](CO)NC(=O)[C@H](CC(C)C)NC(=O)[C@H](CC(C)C)NC(=O)CN)C(=O)N[C@@H](CC(C)C)C(=O)NCC(=O)N[C@@H](C)C(=O)NCC(=O)N[C@@H](CCCCN)C(=O)N[C@@H](Cc1cnc[nH]1)C(=O)N[C@H](C(=O)N[C@H](C(=O)N[C@@H](CS)C(=O)NCC(=O)N[C@@H](CC(C)C)C(=O)N[C@@H](CO)C(=O)NCC(=O)N[C@@H](CC(C)C)C(=O)N[C@@H](CCCN=C(N)N)C(=O)O)C(C)C)[C@@H](C)CC` [GLLSGILGAGKHIVCGLSGLR], the minimum inhibitory concentration (MIC) turned out to be 4.64 µM (≈ 9.37 µg/mL) against Staphylococcus aureus, 2.32 µM (≈ 4.68 µg/mL) with Escherichia coli, 9.28 µM (≈ 18.8 µg/mL) in the test with Bacillus subtilis and 0.544 µM (≈ 1.1 µg/mL) in the test on Candida albicans.

In the case of `CC[C@H](C)[C@H](N)C(=O)N[C@@H](CC(C)C)C(=O)N[C@@H](CCCCN)C(=O)N1CCC[C@H]1C(=O)N[C@@H](CCCCN)C(=O)N[C@@H](CC(C)C)C(=O)N[C@@H](Cc1c[nH]c2ccccc12)C(=O)N[C@@H](CCCCN)C(=O)N[C@@H](CC(C)C)C(=O)N[C@H](C(=O)N[C@H](C(=O)N[C@H](C(=O)N[C@@H](C)C(=O)N[C@@H](CCCN=C(N)N)C(=O)N[C@@H](CCCCN)C(=O)N[C@H](C(=O)N[C@H](C(=O)N[C@@H](CCCCN)C(=O)O)[C@@H](C)CC)[C@@H](C)CC)C(C)C)C(C)C)[C@@H](C)O` [ILKPKLWKLTVVARKIIK], the MIC in [1] is 64 µM (≈ 137 µg/mL); against Acinetobacter baumannii, at least 64 µM; in test [5], over 64 µM; in test [7], over 64 µM; in [3] it was 64 µM (≈ 137 µg/mL).

In the case of `CC(C)C[C@H](NC(=O)[C@H](CCCCN)NC(=O)[C@H](CCCCN)NC(=O)[C@H](C)NC(=O)[C@H](CC(C)C)NC(=O)[C@H](CCCCN)NC(=O)[C@H](CCCCN)NC(=O)[C@H](CC(C)C)NC(=O)[C@H](CCCCN)NC(=O)[C@H](CCCCN)NC(=O)[C@H](C)NC(=O)[C@H](CC(C)C)NC(=O)[C@H](CCCCN)NC(=O)[C@H](CCCCN)NC(=O)[C@H](C)NC(=O)[C@H](Cc1ccccc1)NC(=O)[C@H](CCCCN)NC(=O)[C@H](CCCCN)NC(=O)[C@H](Cc1ccccc1)NC(=O)[C@H](CC(C)C)NC(=O)[C@H](CCCCN)NC(=O)[C@@H](NC(=O)[C@@H](N)CCCCN)[C@@H](C)O)C(=O)O` [KTKLFKKFAKKLAKKLKKLAKKL], the figures for the MIC in test [1] and in test [4] were 36.6 µM (≈ 100 µg/mL) and 3.66 µM (≈ 10 µg/mL), respectively.

For `CC[C@H](C)[C@H](NC(=O)[C@H](CCCN=C(N)N)NC(=O)[C@H](CC(C)C)NC(=O)[C@@H](NC(=O)[C@H](Cc1ccccc1)NC(=O)[C@H](CCCN=C(N)N)NC(=O)[C@H](C)NC(=O)[C@@H](N)CC(C)C)C(C)C)C(=O)N[C@@H](CC(C)C)C(=O)N[C@@H](CCCCN)C(=O)N[C@@H](Cc1ccc(O)cc1)C(=O)NCC(=O)N[C@@H](Cc1ccccc1)C(=O)N[C@@H](CCCCN)C(=O)O` [LARFVLRILKYGFK], the MIC in [1] came to 64 µM (≈ 110 µg/mL); in the test with Acinetobacter baumannii, 8 µM (≈ 13.8 µg/mL); in test [5] it was 32 µM (≈ 55.2 µg/mL); in test [7], 64 µM (≈ 110 µg/mL); in test [3] it was 64 µM (≈ 110 µg/mL).

Take `CC[C@H](C)[C@H](NC(=O)[C@@H](NC(=O)[C@@H](NC(=O)[C@@H]1CCCN1C(=O)[C@H](Cc1c[nH]c2ccccc12)NC(=O)[C@H](Cc1ccccc1)NC(=O)[C@H](CCCN=C(N)N)NC(=O)[C@H](CCCCN)NC(=O)[C@@H](NC(=O)[C@@H](N)CCCN=C(N)N)[C@@H](C)CC)C(C)C)C(C)C)C(=O)N[C@@H](CCCN=C(N)N)C(=O)N[C@H](C(=O)N[C@H](C(=O)N[C@H](C(=O)N[C@@H](C)C(=O)NCC(=O)N[C@@H](Cc1ccc(O)cc1)C(=O)N[C@@H](CC(N)=O)C(=O)N[C@@H](CC(C)C)C(=O)O)C(C)C)C(C)C)[C@@H](C)O` [RIKRFWPVVIRTVVAGYNL]: the figures for the MIC in test [8] and in [3] were at least 32.8 µM and 87.4 µM (≈ 200 µg/mL), respectively.

For the molecule `NCCCC[C@H](NC(=O)[C@H](CCCCN)NC(=O)[C@H](Cc1c[nH]c2ccccc12)NC(=O)[C@H](CCCCN)NC(=O)[C@H](Cc1ccccc1)NC(=O)[C@H](CCCN=C(N)N)NC(=O)[C@H](Cc1c[nH]c2ccccc12)NC(=O)[C@@H](N)CCCN=C(N)N)C(=O)O` [RWRFKWKK], the MIC in test [5] was over 81 µM; in test [9] it was at least 81 µM; in test [2], over 81 µM; in test [3], over 81 µM.

Regarding `CC[C@H](C)[C@H](NC(=O)[C@H](CCCCN)NC(=O)[C@H](CS)NC(=O)[C@H](C)NC(=O)[C@@H](NC(=O)[C@H](Cc1ccccc1)NC(=O)CNC(=O)[C@H](CC(C)C)NC(=O)CNC(=O)[C@@H](NC(=O)[C@H](CCCCN)NC(=O)CNC(=O)[C@H](CC(C)C)NC(=O)[C@H](CC(N)=O)NC(=O)[C@H](CCCCN)NC(=O)[C@H](CC(C)C)NC(=O)[C@@H](NC(=O)CNC(=O)[C@H](CC(C)C)NC(=O)[C@H](CCSC)NC(=O)[C@@H](N)CO)C(C)C)C(C)C)C(C)C)C(=O)N[C@@H](CC(N)=O)C(=O)N[C@@H](CCCCN)C(=O)N[C@@H](CCC(N)=O)C(=O)N[C@@H](CS)C(=O)O` [SMLGVLKNLGKVGLGFVACKINKQC], the MIC with Staphylococcus aureus was over 200 µM; in the test with Escherichia coli, 40 µM (≈ 105 µg/mL); with Candida albicans it was 200 µM (≈ 524 µg/mL).

In [10], `CC[C@H](C)[C@H](NC(=O)[C@H](CO)NC(=O)[C@@H](NC(=O)[C@H](CCCCN)NC(=O)[C@H](Cc1ccccc1)NC(=O)[C@@H]1CCCN1C(=O)[C@@H](N)[C@@H](C)O)[C@@H](C)CC)C(=O)N[C@@H](Cc1cnc[nH]1)C(=O)N[C@@H](CC(C)C)C(=O)NCC(=O)NCC(=O)N[C@@H](Cc1ccc(O)cc1)C(N)=O` [TPFKISIHLGGY] displayed a minimum inhibitory concentration (MIC) of at least 150 µM.

With `CC[C@H](C)[C@H](NC(=O)[C@H](Cc1ccccc1)NC(=O)[C@@H](NC(=O)[C@H](Cc1ccccc1)NC(=O)[C@H](CCCN=C(N)N)NC(=O)[C@H](CCCCN)NC(=O)[C@H](CCCN=C(N)N)NC(=O)[C@H](CCCCN)NC(=O)[C@H](Cc1c[nH]c2ccccc12)NC(=O)[C@H](CC(C)C)NC(=O)[C@@H](NC(=O)[C@@H](N)Cc1ccc(O)cc1)C(C)C)[C@@H](C)CC)C(=O)O` [YVLWKRKRFIFI], the MIC in [11] worked out at 30 µM (≈ 50.1 µg/mL); in test [12], 10 µM (≈ 16.7 µg/mL); in test [5], 10 µM (≈ 16.7 µg/mL); against Bacillus subtilis, 20 µM (≈ 33.4 µg/mL).
